Results: US9290459B1, “Substituted bicyclic dihydropyrimidinones and their use as inhibitors of neutrophil elastase activity” (Boehringer Ingelheim International GmbH, priority 2013, dated 2016)
In brackets after ≈: the same amount, converted by molar mass.

Columns and labels:
[1] = Metabolic stability with human liver microsomes; type: in vitro ADME; conditions: human, microsomes; for half-life at 1 μM: pH 7.6
[2] = system: human hepatocytes; test: Metabolic stability with human hepatocytes; type: in vitro ADME; conditions: for CL (predicted human hepatic in vivo blood clearance): human hepatocyte suspension, 1 μM test compound, scaled with well stirred model
Description: Assay for the Determination of Metabolic Stability with Human Hepatocytes The metabolic degradation of the test compound is assayed in a human hepatocyte suspension. Human hepatocytes (typically cryopreserved) are incubated in an appropriate buffer system (e.g. […] Samples are transferred into acetonitrile and pelleted by centrifugation (5 min) The supernatant is transferred to a new 96-deepwell plate, evaporated under nitrogen and resuspended. The decline of parent compound is analyzed by LC-MS/MS.

[3] = Drug transport across human Caco-2 cells; type: in vitro ADME; conditions: human; for Papp A→B at 10 µM / Papp B→A at 10 µM: Caco-2, pH 7.2, Caco-2 monolayers, pH 7.2, 37° C.; for Papp A→B at 10 µM: apical-to-basal, read-out: PEAB; for Papp B→A at 10 µM: basal-to-apical, read-out: PEBA; for efflux ratio at 10 μM: Caco-2, pH 7.2, PEBA/PEAB, Caco-2
[4] = system: Caco-2 cells; test: Drug transport across human Caco-2 cells; type: in vitro ADME; conditions: Caco-2, pH 7.2, 37° C.; compared to prior-art cyclic amide derivative
[5] = Aqueous solubility; type: physicochemical; conditions: McIlvaine buffer pH 6.8 with 2.5% DMSO, pH 6.8, aqueous buffer, kinetic from dmso stock, McIlvaine buffer pH 6.8, 2.5% DMSO, 24 h shaking
Description: Assay for Determination of Aqueous Solubility […] After 24 h of shaking, the solutions or suspensions are filtered and analyzed by LC-UV. The amount dissolved in buffer is compared to the amount dissolved in the acetonitrile/water (1/1) solution.

[6] = target: cytochrome P450 2C9 (Homo sapiens (Human), UniProt P11712); test: Cytochrome P450 2C9 inhibition; type: in vitro ADME; conditions: human liver microsomes; for IC50: Diclofenac hydroxylation, read-out: CYP2C9 IC50
[7] = target: cytochrome P450 2C19 (Homo sapiens (Human), UniProt P33261); test: Cytochrome P450 2C19 inhibition; type: in vitro ADME; conditions: human liver microsomes; for IC50: (S)-Mephenytoin hydroxylation, read-out: CYP2C19 IC50
[8] = target: cytochrome P450 2C8 (Homo sapiens (Human), UniProt P10632); test: Cytochrome P450 2C8 inhibition; type: in vitro ADME; conditions: human liver microsomes; for IC50: Amodiaquine deethylation, read-out: CYP2C8 IC50
[9] = target: Human neutrophil elastase (Homo sapiens (Human), UniProt P08246); test: Human Neutrophil Elastase Assay; type: biochemical; conditions: human neutrophil elastase, substrate MeOSuc-Ala-Ala-Pro-Val-AMC 250 μM, pH 7.5; read-out: IC50
[10] = target: neutrophil elastase in human plasma (Homo sapiens (Human), UniProt P08246); test: Neutrophil elastase inhibitory activity in human plasma (zymosan-stimulated blood); type: biochemical; conditions: neutrophil elastase enriched human plasma from zymosan-stimulated blood; read-out: EC50
Description: Assay for the Determination of Neutrophil Elastase Inhibitory Activity in Human Plasma
Citrated blood from human healthy donors is mixed with zymosan suspension and incubated at room temperature. This leads to the stimulation of neutrophils and the release of neutrophil elastase into the plasma. The stimulated blood is centrifuged to generate the neutrophil elastase enriched plasma.
Various concentrations of the neutrophil elastase inhibitor are incubated with plasma. […] A dose response curve is generated to calculate the EC50 of the inhibitor.

[11] = compared to example 8A disclosed in WO 2005/0828683

cytochrome P450 2C9, sequence (P11712 whole entry): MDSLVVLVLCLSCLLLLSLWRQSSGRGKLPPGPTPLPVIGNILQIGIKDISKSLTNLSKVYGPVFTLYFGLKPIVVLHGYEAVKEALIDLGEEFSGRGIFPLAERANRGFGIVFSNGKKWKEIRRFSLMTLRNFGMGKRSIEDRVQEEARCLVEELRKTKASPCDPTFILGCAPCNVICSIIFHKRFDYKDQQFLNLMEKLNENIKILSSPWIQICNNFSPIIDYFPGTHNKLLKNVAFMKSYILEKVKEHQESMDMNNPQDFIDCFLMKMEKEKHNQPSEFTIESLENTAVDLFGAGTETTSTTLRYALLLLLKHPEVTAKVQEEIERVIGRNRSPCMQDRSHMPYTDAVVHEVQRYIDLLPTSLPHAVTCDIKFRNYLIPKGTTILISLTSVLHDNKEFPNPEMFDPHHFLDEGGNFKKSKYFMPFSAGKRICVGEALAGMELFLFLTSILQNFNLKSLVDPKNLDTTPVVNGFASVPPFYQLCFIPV
cytochrome P450 2C8, sequence (P10632 whole entry): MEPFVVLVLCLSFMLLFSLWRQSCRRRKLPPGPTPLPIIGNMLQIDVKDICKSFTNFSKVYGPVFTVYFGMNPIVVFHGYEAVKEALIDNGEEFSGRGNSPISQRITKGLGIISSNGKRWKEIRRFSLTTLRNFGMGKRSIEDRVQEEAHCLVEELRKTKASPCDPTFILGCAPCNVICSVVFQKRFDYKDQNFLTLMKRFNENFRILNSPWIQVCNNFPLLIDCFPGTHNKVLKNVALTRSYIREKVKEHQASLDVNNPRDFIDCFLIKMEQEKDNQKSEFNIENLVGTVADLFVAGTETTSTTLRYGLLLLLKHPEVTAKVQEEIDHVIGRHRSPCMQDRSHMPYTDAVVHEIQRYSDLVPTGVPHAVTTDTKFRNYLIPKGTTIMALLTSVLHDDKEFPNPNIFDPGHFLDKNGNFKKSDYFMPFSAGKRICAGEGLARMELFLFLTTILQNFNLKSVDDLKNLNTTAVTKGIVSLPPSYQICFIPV
cytochrome P450 2C19, sequence (P33261 whole entry): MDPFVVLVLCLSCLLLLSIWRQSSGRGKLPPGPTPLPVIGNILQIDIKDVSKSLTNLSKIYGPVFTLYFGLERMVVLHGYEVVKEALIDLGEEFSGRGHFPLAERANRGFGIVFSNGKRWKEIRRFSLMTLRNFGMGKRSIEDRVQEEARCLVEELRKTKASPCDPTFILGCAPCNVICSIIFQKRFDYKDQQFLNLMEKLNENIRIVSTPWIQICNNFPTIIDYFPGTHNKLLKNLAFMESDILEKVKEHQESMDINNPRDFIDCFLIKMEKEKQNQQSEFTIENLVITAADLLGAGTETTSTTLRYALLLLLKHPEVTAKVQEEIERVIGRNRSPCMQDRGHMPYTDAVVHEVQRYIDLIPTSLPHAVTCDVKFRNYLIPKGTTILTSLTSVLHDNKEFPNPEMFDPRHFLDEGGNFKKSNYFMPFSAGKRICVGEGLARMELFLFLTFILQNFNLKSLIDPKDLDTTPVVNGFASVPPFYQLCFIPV
neutrophil elastase in human plasma, sequence (P08246 30-247): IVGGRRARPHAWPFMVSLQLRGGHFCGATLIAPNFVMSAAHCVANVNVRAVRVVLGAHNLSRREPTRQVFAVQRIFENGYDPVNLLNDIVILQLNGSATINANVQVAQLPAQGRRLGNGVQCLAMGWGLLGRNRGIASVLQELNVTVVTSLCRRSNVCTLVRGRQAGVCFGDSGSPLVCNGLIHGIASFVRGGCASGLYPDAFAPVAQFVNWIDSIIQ
Human neutrophil elastase, sequence (P08246 30-247): as above

| Structure (SMILES) | half-life (t1/2 INVITRO), metabolic stability [1] | half-life at 1 μM [1] | CL (predicted human hepatic in vivo blood clearance) [2] | predicted human hepatic in vivo blood clearance (CL) ([2]; human hepatocytes, compared to example 8A disclosed in WO 2005/0828683) | Papp A→B at 10 µM [3] | Papp B→A at 10 µM [3] | AB permeability (PEAB) [4] | solubility at 24 h [5] | CYP2C9 inhibition [6, 11] | CYP2C19 inhibition ([7]; compared to example 8A in WO 2005/0828683) | CYP2C8 inhibition [8, 11] | IC50 [9] | EC50 [10] | efflux ratio at 10 μM [3] | IC50 [6] | IC50 [7] | IC50 [8] |
| --- | --- | --- | --- | --- | --- | --- | --- | --- | --- | --- | --- | --- | --- | --- | --- | --- | --- |
| N#Cc1ccc([C@H]2NC(=O)N(c3cccc(C(F)(F)F)c3)C3=C2C(=O)CC3)cc1 [Example 1A, (R)-4-(2,5-Dioxo-1-(3-(trifluoromethyl)phenyl)-2,3,4,5,6,7-hexahydro-1H-cyclopenta[d]pyrimidin-4-yl)benzonitrile] | improved half life | > 2.17 h | 6 mL/min/kg | reduced clearance | 51 ×10⁻⁶ cm/s | 76.4 ×10⁻⁶ cm/s | improved AB permeability | 74 µg/mL (≈ 186 µM) | reduced CYP2C9 inhibition | reduced CYP2C19 inhibition | reduced CYP2C8 inhibition | – | – | – | – | – | – |
| CS(=O)(=O)c1cc(C#N)ccc1[C@H]1NC(=O)N(c2cccc(C(F)(F)F)c2)C2=C1C(=O)CC2 [Example 10A, (S)-4-(2,5-Dioxo-1-(3-(trifluoromethyl)phenyl)-2,3,4,5,6,7-hexahydro-1H-cyclopenta[d]pyrimidin-4-yl)-3-(methylsulfonyl)benzonitrile] | – | > 2.17 h | 0 mL/min/kg | – | 4.93 ×10⁻⁶ cm/s | 57.4 ×10⁻⁶ cm/s | improved AB permeability | 84.5 µg/mL (≈ 178 µM) | – | – | – | 0.0026 µM | 0.001 µM | 14.5 | > 50 µM | 39 µM | > 50 µM |
| CNC(=O)N1C(=O)N(c2cccc(C(F)(F)F)c2)C2=C(C(=O)CC2)[C@H]1c1ccc(C#N)cc1S(C)(=O)=O [Example 47.1] | – | > 2.17 h | 0 mL/min/kg | – | 8.13 ×10⁻⁶ cm/s | 65.1 ×10⁻⁶ cm/s | – | 83 µg/mL (≈ 156 µM) | – | – | – | < 0.001 µM | < 0.001 µM | 8 | > 50 µM | > 50 µM | > 50 µM |
